# In PubChem BioAssay AID1918953 (Molecular Pharmacology Branch, DTP, NCI, 2023):
# pIC50: −log10 of the molar value.
# System: MDA-MB-231 complex spheroid viability
# Test: Anticancer human tumor MDA-MB-231/ATCC cell line growth inhibition;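 further: drug exposure lasted 7 days starting on day 3 of spheroid growth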
# Details: for pIC50: curve of first compound; for viability, T/C: stronger effect = lower value
# In short: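 Drug combinations with the LSD1 inhibitor iadademstat tested on tumor cells co-cultured as spheroids with endothelial cells and mesenchymal stem cells. Concentrations descended in half-log increments from clinical Cmax or 10 microM.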
# [1] = second compound 0.1 µM, first compound 0.00949 µM
# [2] = second compound 0.1 µM, first compound 0.03 µM
# [3] = second compound 0.1 µM, first compound 0.0949 µM
# [4] = second compound 0.1 µM, first compound 0.3 µM
# [5] = second compound 0.1 µM, first compound 0.949 µM
# [6] = second compound 0.1 µM, first compound 3 µM
# [7] = second compound 0.316 µM, first compound 0.00949 µM
# [8] = second compound 0.316 µM, first compound 0.03 µM
# [9] = second compound 0.316 µM, first compound 0.0949 µM
# [10] = second compound 0.316 µM, first compound 0.3 µM
# [11] = second compound 0.316 µM, first compound 0.949 µM
# [12] = second compound 0.316 µM, first compound 3 µM
# [13] = second compound 1 µM, first compound 0.00949 µM
# [14] = second compound 1 µM, first compound 0.03 µM
# [15] = second compound 1 µM, first compound 0.0949 µM
# [16] = second compound 1 µM, first compound 0.3 µM
# [17] = second compound 1 µM, first compound 0.949 µM
# [18] = second compound 1 µM, first compound 3 µM
# [19] = second compound 3.16 µM, first compound 0.00949 µM
# [20] = second compound 3.16 µM, first compound 0.03 µM
# [21] = second compound 3.16 µM, first compound 0.0949 µM
# [22] = second compound 3.16 µM, first compound 0.3 µM
# [23] = second compound 3.16 µM, first compound 0.949 µM
# [24] = second compound 3.16 µM, first compound 3 µM
# [25] = second compound 10 µM, first compound 0.00949 µM
# [26] = second compound 10 µM, first compound 0.03 µM
# [27] = second compound 10 µM, first compound 0.0949 µM
# [28] = second compound 10 µM, first compound 0.3 µM
# [29] = second compound 10 µM, first compound 0.949 µM
# [30] = second compound 10 µM, first compound 3 µM
SMILES,pIC50 (second compound 0.1 µM),pIC50 (second compound 0.316 µM),pIC50 (second compound 1 µM),pIC50 (second compound 3.16 µM),pIC50 (second compound 10 µM),"viability, T/C [1] [%]","viability, T/C [2] [%]","viability, T/C [3] [%]","viability, T/C [4] [%]","viability, T/C [7] [%]","viability, T/C [8] [%]","viability, T/C [9] [%]","viability, T/C [10] [%]","viability, T/C [13] [%]","viability, T/C [14] [%]","viability, T/C [15] [%]","viability, T/C [16] [%]","viability, T/C [19] [%]","viability, T/C [20] [%]","viability, T/C [21] [%]",also measured
NS(=O)(=O)OCC1CC(n2ccc3c(NC4CCc5ccccc54)ncnc32)CC1O (stereo not given) + NC1CC1c1ccc(-c2cccc(O)c2)cc1,7.08,7.12,7.09,7.15,7.44,128,94.3,44.1,28.6,118,93.5,39.1,27.2,114,90.1,44.2,29.3,116,78.9,40.8,"viability, T/C [5]: 28.8%; viability, T/C [6]: 27.9%; viability, T/C [11]: 23.9%; viability, T/C [12]: 27.8%; viability, T/C [17]: 25.6%; viability, T/C [18]: 28.4%; viability, T/C [22]: 27%; viability, T/C [23]: 30.4%; viability, T/C [24]: 28.3%; viability, T/C [25]: 68.6%; viability, T/C [26]: 53.4%; viability, T/C [27]: 34.8%; viability, T/C [28]: 27%; viability, T/C [29]: 26.3%; viability, T/C [30]: 20.2%"
CCc1c2c(nc3ccc(O)cc13)-c1cc3c(c(=O)n1C2)COC(=O)[C@]3(O)CC + NC1CC1c1ccc(-c2cccc(O)c2)cc1,> 9.02,> 9.02,> 9.02,> 9.02,> 9.02,18.3,4.83,1.03,0.74,19.4,5.07,0.91,0.54,17.1,5.94,0.68,0.61,18.4,5.48,0.85,"viability, T/C (second compound 0.1 µM, first compound 0.000949 µM): 22.7%; viability, T/C (second compound 0.1 µM, first compound 0.003 µM): 19.7%; viability, T/C (second compound 0.316 µM, first compound 0.000949 µM): 22.5%; viability, T/C (second compound 0.316 µM, first compound 0.003 µM): 22%; viability, T/C (second compound 1 µM, first compound 0.000949 µM): 23.9%; viability, T/C (second compound 1 µM, first compound 0.003 µM): 20.1%; viability, T/C (second compound 3.16 µM, first compound 0.000949 µM): 22.4%; viability, T/C (second compound 3.16 µM, first compound 0.003 µM): 20.1%; viability, T/C [22]: 0.54%; viability, T/C (second compound 10 µM, first compound 0.000949 µM): 18.5%; viability, T/C (second compound 10 µM, first compound 0.003 µM): 20.4%; viability, T/C [25]: 13.1%; viability, T/C [26]: 1.68%; viability, T/C [27]: 0.74%; viability, T/C [28]: 0.5%"
O=C(C=Cc1cccc(S(=O)(=O)Nc2ccccc2)c1)NO + NC1CCC(NC2CC2c2ccccc2)CC1,6.95,6.97,7.18,7.66,> 8.02,90.7,75.7,53,30.5,86.3,69.6,53.5,30.8,79.1,61.8,43.6,30.3,61.4,45.3,31,"viability, T/C [5]: 13.7%; viability, T/C [6]: 0.59%; viability, T/C [11]: 14.1%; viability, T/C [12]: 1.38%; viability, T/C [17]: 11.3%; viability, T/C [18]: 0.68%; viability, T/C [22]: 20.8%; viability, T/C [23]: 6.19%; viability, T/C [24]: 0.34%; viability, T/C [25]: 39.8%; viability, T/C [26]: 29.8%; viability, T/C [27]: 17.9%; viability, T/C [28]: 13.9%; viability, T/C [29]: 3.39%; viability, T/C [30]: 0.33%"
